Experimental data reported in ChEMBL document CHEMBL5356971, “Optimization of the Antibacterial Spectrum and the Developability Profile of the Novel-Class Natural Product Corramycin” (J Med Chem, 2023).
Values after ≈ are worked out from the molar mass of the structure shown. Active and inactive are the calls of the source. The rule behind the calls is not given here.

How the values were obtained:
[1] = Metabolic stability in mouse kidney assessed as parent compound remaining measured after 4 hrs by UPLC-MS analysis; type: ADME, tissue-based; settings: read-out: Stability
[2] = Metabolic stability in mouse lung assessed as parent compound remaining measured after 4 hrs by UPLC-MS analysis; type: ADME, tissue-based; settings: for remaining at 4 h: mouse lung, read-out: Stability
[3] = Metabolic stability in mouse lung assessed as parent compound remaining measured after 1 hrs by UPLC-MS analysis; type: ADME, tissue-based; settings: for remaining at 1 h: mouse lung, read-out: Stability
[4] = Metabolic stability in mouse kidney assessed as parent compound remaining measured after 1 hrs by UPLC-MS analysis; type: ADME, tissue-based; settings: read-out: Stability
[5] = system: Escherichia coli; assay: Antibacterial activity against wild type Escherichia coli ATCC 35218 assessed as reduction in microbial growth incubated for 20 to 22 hrs by CLSI based analysis; type: functional; settings: time 20-22 hrs
[6] = system: Escherichia coli; assay: Antibacterial activity against Escherichia coli ATCC 35218 harboring SbmA assessed as reduction in microbial growth incubated for 20 to 22 hrs by CLSI based analysis; type: functional; settings: time 20-22 hrs
[7] = system: Klebsiella pneumoniae; assay: Antibacterial activity against wild type Klebsiella pneumoniae ATCC 13883 assessed as reduction in microbial growth incubated for 20 to 22 hrs by CLSI based analysis; type: functional; settings: time 20-22 hrs
[8] = system: Klebsiella pneumoniae; assay: Antibacterial activity against Klebsiella pneumoniae ATCC 13883 harboring SbmA assessed as reduction in microbial growth incubated for 20 to 22 hrs by CLSI based analysis; type: functional; settings: time 20-22 hrs
[9] = system: Acinetobacter baumannii; assay: Antibacterial activity against wild type Acinetobacter baumannii ATCC 19606 assessed as reduction in microbial growth incubated for 20 to 22 hrs by CLSI based analysis; type: functional; settings: time 20-22 hrs
[10] = system: Escherichia coli; assay: Antibacterial activity against Escherichia coli ATCC 25922 infected in Swiss albino mouse thigh infection model at 10 mg/kg, iv measured after 1 hr; type: functional, organism-based
[11] = system: Klebsiella pneumoniae; assay: Antibacterial activity against Klebsiella pneumoniae ATCC 13883 infected in Swiss albino mouse thigh infection model at 10 mg/kg, iv measured after 1 hr; type: functional, organism-based
[12] = system: Klebsiella pneumoniae; assay: Antibacterial activity against Klebsiella pneumoniae ATCC 13883 infected in Swiss albino mouse model of neutropenic lung infection at 10 mg/kg, iv pretreated for 1 hr followed by bacterial infection and measured after 5 hr post infection; type: functional, organism-based; settings: time 6.0 hrs
[13] = system: Escherichia coli; assay: Antibacterial activity against Escherichia coli ATCC 35218 assessed as reduction in microbial growth incubated for 20 to 22 hrs by CLSI based analysis; type: functional; settings: time 20-22 hrs
[14] = system: Klebsiella pneumoniae; assay: Antibacterial activity against Klebsiella pneumoniae ATCC 13883 assessed as reduction in microbial growth incubated for 20 to 22 hrs by CLSI based analysis; type: functional; settings: time 20-22 hrs
[15] = system: Acinetobacter baumannii; assay: Antibacterial activity against Acinetobacter baumannii ATCC 19606 assessed as reduction in microbial growth incubated for 20 to 22 hrs by CLSI based analysis; type: functional; settings: time 20-22 hrs
[16] = system: Escherichia coli; assay: Antibacterial activity against Escherichia coli ATCC 35218 infected in Swiss albino mouse model of Septicaemia infection assessed as log reduction in Septicaemia in blood at 1 mg/kg , iv preincubated for 4 hrs followed by bacterial infection and measured after 4 hrs post infection; type: functional; settings: time 8 hrs
[17] = system: Escherichia coli; assay: Antibacterial activity against Escherichia coli ATCC 35218 infected in Swiss albino mouse model of Septicaemia infection assessed as log reduction in Septicaemia in blood at 20 mg/kg , iv preincubated for 4 hrs followed by bacterial infection and measured after 4 hrs post infection; type: functional; settings: time 8 hrs
[18] = system: Escherichia coli; assay: Antibacterial activity against […] assessed as bacterial growth inhibition incubated for 20 to 22 hrs by CLSI based analysis; type: functional; settings: time 20-22 hrs
[19] = system: Escherichia coli; assay: Antibacterial activity against multidrug-resistant Escherichia coli BAA2469 assessed as bacterial growth inhibition incubated for 20 to 22 hrs by CLSI based analysis; type: functional; settings: time 20-22 hrs
[20] = system: Escherichia coli; assay: Antibacterial activity against multidrug-resistant Escherichia coli IR45 assessed as bacterial growth inhibition incubated for 20 to 22 hrs by CLSI based analysis; type: functional; settings: time 20-22 hrs
[21] = system: Klebsiella pneumoniae; assay: Antibacterial activity against multidrug-resistant Klebsiella pneumoniae BAA2146 assessed as bacterial growth inhibition incubated for 20 to 22 hrs by CLSI based analysis; type: functional; settings: time 20-22 hrs
[22] = system: Klebsiella pneumoniae; assay: Antibacterial activity against multidrug-resistant Klebsiella pneumoniae B817 assessed as bacterial growth inhibition incubated for 20 to 22 hrs by CLSI based analysis; type: functional; settings: time 20-22 hrs
[23] = system: Pseudomonas aeruginosa; assay: Antibacterial activity against multidrug-resistant Pseudomonas aeruginosa PAO1 assessed as bacterial growth inhibition incubated for 20 to 22 hrs by CLSI based analysis; type: functional; settings: time 20-22 hrs
[24] = system: Pseudomonas aeruginosa; assay: Antibacterial activity against multidrug-resistant Pseudomonas aeruginosa PAO750 assessed as bacterial growth inhibition incubated for 20 to 22 hrs by CLSI based analysis; type: functional; settings: time 20-22 hrs
[25] = system: Enterobacter cloacae; assay: Antibacterial activity against multidrug-resistant Enterobacter cloacae BAA2341 assessed as bacterial growth inhibition incubated for 20 to 22 hrs by CLSI based analysis; type: functional; settings: time 20-22 hrs
[26] = system: Proteus mirabilis; assay: Antibacterial activity against multidrug-resistant Proteus mirabilis ATCC 7002 assessed as bacterial growth inhibition incubated for 20 to 22 hrs by CLSI based analysis; type: functional; settings: time 20-22 hrs
[27] = system: Citrobacter freundii; assay: Antibacterial activity against multidrug-resistant Citrobacter freundii ATCC 8090 assessed as bacterial growth inhibition incubated for 20 to 22 hrs by CLSI based analysis; type: functional; settings: time 20-22 hrs
[28] = system: Providencia stuartii; assay: Antibacterial activity against multidrug-resistant Providencia stuartii ATCC 49809 assessed as bacterial growth inhibition incubated for 20 to 22 hrs by CLSI based analysis; type: functional; settings: time 20-22 hrs

Row | SMILES | remaining at 4 h [1] | remaining at 4 h [2] | remaining at 1 h [3] | remaining at 1 h [4] | MIC [5] | MIC [6] | MIC [7] | MIC [8] | MIC [9] | MIC [13] | MIC [14] | MIC [15] | Activity [16] | other results
1 | CO[C@@H](CNC(=O)[C@H](NC(=O)[C@H](O)[C@H](C)O)[C@H](O)c1cncn1C)[C@H](O)[C@H](O)C(=O)N(C)[C@@H](Cc1ccc(F)cc1)C(=O)NCC(=O)N[C@H](C(=O)N[C@@H](CO)C(=O)N[C@H](C(=O)N[C@H](C(=O)N[C@@H](CO)C(=O)N[C@@H](CN)C(=O)NCc1cc(=O)c(O)cn1O)C(C)(C)C)C(C)(C)O)C(C)(C)O | 95% | 107% | 96% | 97% | 0.01 µg/mL | 4 µg/mL | 0.12 µg/mL | > 32 µg/mL | 0.5 µg/mL |  |  |  |  | Activity [10]: Active; Activity [11]: Active; Activity [12]: Active
2 | CO[C@@H](CNC(=O)[C@H](NC(=O)[C@H](O)[C@H](C)O)[C@H](O)c1cncn1C)[C@H](O)[C@H](O)C(=O)N(C)[C@@H](Cc1ccc(F)cc1)C(=O)NCC(=O)N[C@H](C(=O)N[C@@H](CO)C(=O)N[C@H](C(=O)N[C@H](C(=O)N[C@@H](CO)C(=O)NCCN)C(C)(C)C)C(C)(C)O)C(C)(C)O | 92% |  |  | 105% |  |  |  |  |  | 0.125 µg/mL | 0.25 µg/mL | > 8 µg/mL | -5.6 log10CFU | Stability ([2]; 4 h): 138%; Stability ([3]; 1 h): 127%
3 | CO[C@@H](CNC(=O)[C@H](NC(=O)[C@H](O)[C@H](C)O)[C@H](O)c1cncn1C)[C@H](O)[C@H](O)C(=O)N(C)[C@@H](Cc1ccccc1)C(=O)NCC(=O)N[C@H](C(=O)N[C@@H](CO)C(=O)N[C@H](C(=O)N[C@@H](CC(C)C)C(=O)N[C@@H](CO)C(=O)NCCN)C(C)(C)O)C(C)(C)O |  |  |  |  |  |  |  |  |  | 2 µg/mL | 8 µg/mL | > 32 µg/mL |  | Activity [17]: -4.1 log10CFU
4 | C[C@@H](O)[C@H]1C(=O)N2C(C(=O)O)=C(S[C@@H]3CN[C@H](C(=O)N(C)C)C3)[C@H](C)[C@H]12 [MEROPENEM] |  |  |  |  |  |  |  |  |  |  |  |  |  | MIC [18]: < 0.03 µg/mL; MIC [19]: < 0.03 µg/mL; MIC [20]: 8 µg/mL (≈ 20.9 µM); MIC [21]: > 16 µg/mL; MIC [22]: < 0.03 µg/mL; MIC [23]: 1 µg/mL (≈ 2.61 µM); MIC [24]: ≤ 0.25 µg/mL; MIC [25]: > 16 µg/mL; MIC [26]: ≤ 0.25 µg/mL; MIC [27]: ≤ 0.25 µg/mL; MIC [28]: ≤ 0.25 µg/mL
5 | CO[C@@H](CNC(=O)[C@H](NC(=O)[C@H](O)[C@H](C)O)[C@H](O)c1cncn1C)[C@H](O)[C@H](O)C(=O)N(C)[C@@H](Cc1ccc(F)cc1)C(=O)NCC(=O)N[C@H](C(=O)N[C@@H](CO)C(=O)N[C@H](C(=O)N[C@H](C(=O)N[C@@H](CO)C(=O)NCc1cc(=O)c(O)cn1O)C(C)(C)C)C(C)(C)O)C(C)(C)O | 28% | 54% | 81% | 44% | < 0.01 µg/mL | 2 µg/mL | 0.125 µg/mL | > 32 µg/mL | 0.5 µg/mL |  |  |  | -5.6 log10CFU | 
6 | CO[C@@H](CNC(=O)[C@H](NC(=O)[C@H](O)[C@H](C)O)[C@H](O)c1cncn1C)[C@H](O)[C@H](O)C(=O)N(C)[C@@H](Cc1ccccc1)C(=O)N[C@@H](C)C(=O)N[C@H](C(=O)N[C@@H](CO)C(=O)N[C@H](C(=O)N[C@@H](CC(C)C)C(=O)N[C@@H](CO)C(=O)O)C(C)(C)O)C(C)(C)O |  |  |  |  |  |  |  |  |  | 8 µg/mL | > 32 µg/mL | > 32 µg/mL |  | 
